For test [1], the target named is T1, human CaV3.1 (Homo sapiens, UniProt O43497).
T1 construct: expressed in transfected cells; host or cells: HEK 293T, transient transfection (FuGENE HD)
Nature of the test: T-type calcium channel window current FLIPR assay, CaV3.1. It is filed as cell-based. How it is done:
(§1) The human embryonic kidney 293 (HEK 293) cell lines (from Emmanuel Bourinet, Montpellier, France) stably expressing CaV3.2 or CaV3.3 were cultured under 5% carbon dioxide at 37 °C in Dulbecco’s Modified Eagle Medium (DMEM) Glutamax (Gibco, Life Technologies, Carlsbad, CA, USA) supplemented with 10% (v/v) fetal bovine serum (FBS), 100 U/mL penicillin, 100 μg/mL streptomycin (Gibco, Life Technologies), and 750 μg/mL geneticin (G418) (Gibco, Life Technologies). The Chinese Hamster Ovary (CHO) cell lines (Emmanuel Bourinet, Montpellier, France) expressing CaV3.1 were cultured under 5% carbon dioxide at 37 °C in Alpha Minimum Essential Media (MEM) Glutamax (Gibco, Life Technologies), supplemented with 10% (v/v) fetal bovine serum (FBS) and 300 μg/mL geneticin (G418) (Gibco, Life Technologies). The human neuroblastoma SH-SY5 Y cells (Victor Diaz, Goettingen, Germany) were cultured under 5% carbon dioxide at 37 °C in RPMI 1640 antibiotic-free medium (Invitrogen, Carlsbad, CA, USA), supplemented with 15% FBS and 2 mM GlutaMAX™ (Invitrogen). D-PBS (Gibco, Life Technologies) was used to wash the cells, and 0.25% Trypsin-EDTA (Gibco, Life Technologies) was used to detach cells from the flask surface. They were split in a ratio of 1:5 (ideally 1000 cells/cm^2) when they reached 70%–80% confluence (every 2–3 days). Transiently transfected CaV3.1HEK293 T cells were used in FLIPR Assays. HEK 293 T cells were cultured under 5% carbon dioxide at 37 °C in DMEM supplemented with 10% (v/v) FBS. D-PBS was used to wash the cells, and 0.25% Trypsin-EDTA was used to detach cells from the flask surface. The cells were split and seeded at 6 million cells per T175 flask, to reach 70%–80% confluence after 24 h. The next day, 12 μg DNA of human CaV3.1 was incubated in 900 μL serum-free DMEM with 36 μL FuGENE HD transfection reagent (Promega Corporation, Madison, WI, US) (1:3 DNA/Fugene ratio) for 20 min, and then the mixture was added into the cell flask slowly, drop by drop. After the transfection, the cells were cultured under 5% carbon dioxide at 37 °C for 24 h and then moved to a 28 °C incubator.
HEK 293 cells stably expressing CaV3.2 or CaV3.3 were seeded into 384-well black wall clear bottom plates (Corning, Lowell, MA, USA) at a density of 30,000 cells per well. Transiently transfected CaV3.1HEK293 T cells were seeded into 384-well black wall clear bottom plates at a density of 60,000 cells per well. Once the cells reached 90%–95% confluence after 24 h, the media were removed from the wells and replaced with 20 μL of 10% calcium 4 dye (Molecular Devices, Sunnyvale, CA, USA) in HBSS-HEPES (containing 5 mM KCl, 10 mM HEPES, 140 mM NaCl, 10 mM glucose, and 0.5 mM CaCl2, pH 7.4) with 0.1% bovine serum albumin (BSA). The cells were incubated for 30 min at 37 °C in the presence of 5% carbon dioxide. Each well on the reagent plates for the first addition contained 15 μL different concentrations of compounds dissolved in HBSS-HEPES containing 0.1% BSA and <0.1% DMSO and was incubated for 20 min after loading. Positive and negative controls contained 15 μL of HBSS-HEPES (0.1% BSA) alone. The plates were placed in the FLIPR^TETRA (Molecular Devices, Sunnyvale, CA, USA) programmed to measure maximum fluorescence intensity following a second addition of the agonist 5 mM CaCl2. The data acquisition parameters were adjusted as follows: Baseline fluorescence of 1500–2000 arbitrary fluorescence units (AFU), emission wavelength of 515–575 nm, and excitation wavelength of 470–495 nm. HBSS-HEPES (0.1% BSA) was used in the second addition as a negative control. One fluorescence reading was taken before the second addition. Then the fluorescence readings were recorded every two seconds for 300 s. Raw fluorescence readings in the form of relative light units were converted to response over baseline using ScreenWorks® (Molecular Devices, version 3.2.0.14) software.
Data were plotted and analyzed using GraphPad Prism v7.0 (GraphPad Software Inc., San Diego, CA, USA).

The target of test [2] is recombinant hCaV3.3 channels (Homo sapiens, UniProt Q9P0X4). Nature of the test: Whole-cell patch-clamp QPatch 16 X, CaV3.3. It is filed as cell-based. As for the experimental part: as §1
Whole-cell patch-clamp experiments were performed on an automated electrophysiology platform QPatch 16 X (Sophion Bioscience A/S, Ballerup, Denmark) in single-hole configuration using 16-channel planar patch chip QPlates (Sophion Bioscience A/S). The extracellular recording solution contained, in mM: TEACl 157, MgCl2 0.5, CaCl2 5, and HEPES 10; pH 7.4 adjusted with TEAOH; and osmolarity 320 mOsm. The intracellular pipette solution contained, in mM: CsF 140, EGTA 1, HEPES 10, and NaCl 10; pH 7.2 adjusted with CsOH; and osmolarity 325 mOsm. […]
Data were plotted and analyzed using GraphPad Prism v7.0 (GraphPad Software Inc., San Diego, CA, USA). […]
Background: Patch clamp records ionic current or voltage across a cell membrane.

The IC50 is the concentration that gives 50% inhibition. As usually defined, the Emax is the size of the effect at its maximum, as opposed to the concentration needed. As usually defined, the inhibition is the percentage by which the read-out fell short of the control.

Sequence of recombinant hCaV3.3 channels (Q9P0X4 whole entry): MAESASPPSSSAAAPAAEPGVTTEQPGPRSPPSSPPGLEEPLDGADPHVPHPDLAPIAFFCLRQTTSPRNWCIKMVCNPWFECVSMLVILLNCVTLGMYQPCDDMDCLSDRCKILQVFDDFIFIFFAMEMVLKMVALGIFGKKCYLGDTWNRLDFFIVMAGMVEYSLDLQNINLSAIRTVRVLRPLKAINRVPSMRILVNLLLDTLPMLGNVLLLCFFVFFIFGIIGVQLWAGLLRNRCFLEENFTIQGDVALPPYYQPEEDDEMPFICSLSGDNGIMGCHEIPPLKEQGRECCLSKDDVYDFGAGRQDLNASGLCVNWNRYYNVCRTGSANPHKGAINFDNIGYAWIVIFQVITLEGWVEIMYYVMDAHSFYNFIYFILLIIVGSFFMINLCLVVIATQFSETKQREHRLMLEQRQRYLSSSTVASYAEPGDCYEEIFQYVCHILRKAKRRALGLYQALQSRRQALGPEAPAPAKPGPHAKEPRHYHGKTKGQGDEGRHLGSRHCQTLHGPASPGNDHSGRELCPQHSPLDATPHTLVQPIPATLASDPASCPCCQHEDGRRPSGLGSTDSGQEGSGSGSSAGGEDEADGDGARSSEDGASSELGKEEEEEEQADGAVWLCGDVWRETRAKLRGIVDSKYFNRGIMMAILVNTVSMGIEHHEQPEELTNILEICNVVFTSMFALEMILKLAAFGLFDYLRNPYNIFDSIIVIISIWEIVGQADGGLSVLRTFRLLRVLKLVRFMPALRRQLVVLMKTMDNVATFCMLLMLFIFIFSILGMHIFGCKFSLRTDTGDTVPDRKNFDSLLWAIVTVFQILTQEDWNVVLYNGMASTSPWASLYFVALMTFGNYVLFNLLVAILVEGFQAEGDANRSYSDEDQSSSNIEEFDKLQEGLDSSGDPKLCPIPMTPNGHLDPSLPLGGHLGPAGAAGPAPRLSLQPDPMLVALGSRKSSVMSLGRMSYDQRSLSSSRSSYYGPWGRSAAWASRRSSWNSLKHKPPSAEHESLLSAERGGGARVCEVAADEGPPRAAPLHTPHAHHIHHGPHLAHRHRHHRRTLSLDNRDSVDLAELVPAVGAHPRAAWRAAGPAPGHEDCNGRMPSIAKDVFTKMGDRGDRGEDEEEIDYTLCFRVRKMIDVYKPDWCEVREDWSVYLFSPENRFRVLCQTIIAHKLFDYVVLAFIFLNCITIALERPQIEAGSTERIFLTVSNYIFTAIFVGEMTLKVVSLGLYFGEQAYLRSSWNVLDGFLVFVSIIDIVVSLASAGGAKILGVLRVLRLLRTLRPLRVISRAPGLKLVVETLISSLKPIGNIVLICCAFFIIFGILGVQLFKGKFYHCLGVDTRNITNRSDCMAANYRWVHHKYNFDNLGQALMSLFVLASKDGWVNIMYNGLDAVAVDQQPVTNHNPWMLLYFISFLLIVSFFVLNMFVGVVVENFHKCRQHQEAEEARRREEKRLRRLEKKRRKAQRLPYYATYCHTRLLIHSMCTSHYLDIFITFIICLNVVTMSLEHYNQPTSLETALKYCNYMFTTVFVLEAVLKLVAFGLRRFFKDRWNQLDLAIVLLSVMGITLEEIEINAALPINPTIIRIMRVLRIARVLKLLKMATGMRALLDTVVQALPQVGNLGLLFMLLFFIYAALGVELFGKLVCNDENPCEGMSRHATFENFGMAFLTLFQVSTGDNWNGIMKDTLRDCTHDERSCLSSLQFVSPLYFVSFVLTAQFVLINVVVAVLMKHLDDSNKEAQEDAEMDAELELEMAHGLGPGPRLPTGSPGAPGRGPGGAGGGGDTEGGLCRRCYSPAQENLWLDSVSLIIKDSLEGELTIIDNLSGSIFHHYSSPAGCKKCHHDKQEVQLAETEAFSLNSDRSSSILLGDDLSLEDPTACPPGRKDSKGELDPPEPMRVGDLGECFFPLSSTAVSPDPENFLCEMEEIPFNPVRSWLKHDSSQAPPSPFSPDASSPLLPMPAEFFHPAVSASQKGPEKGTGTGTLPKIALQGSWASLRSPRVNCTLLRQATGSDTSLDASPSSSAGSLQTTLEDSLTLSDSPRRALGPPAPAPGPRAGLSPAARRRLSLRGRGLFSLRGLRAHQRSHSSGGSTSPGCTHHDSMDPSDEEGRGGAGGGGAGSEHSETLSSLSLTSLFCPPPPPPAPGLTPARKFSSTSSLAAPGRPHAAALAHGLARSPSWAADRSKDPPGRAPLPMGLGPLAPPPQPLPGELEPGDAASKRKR
T1 sequence (O43497 whole entry): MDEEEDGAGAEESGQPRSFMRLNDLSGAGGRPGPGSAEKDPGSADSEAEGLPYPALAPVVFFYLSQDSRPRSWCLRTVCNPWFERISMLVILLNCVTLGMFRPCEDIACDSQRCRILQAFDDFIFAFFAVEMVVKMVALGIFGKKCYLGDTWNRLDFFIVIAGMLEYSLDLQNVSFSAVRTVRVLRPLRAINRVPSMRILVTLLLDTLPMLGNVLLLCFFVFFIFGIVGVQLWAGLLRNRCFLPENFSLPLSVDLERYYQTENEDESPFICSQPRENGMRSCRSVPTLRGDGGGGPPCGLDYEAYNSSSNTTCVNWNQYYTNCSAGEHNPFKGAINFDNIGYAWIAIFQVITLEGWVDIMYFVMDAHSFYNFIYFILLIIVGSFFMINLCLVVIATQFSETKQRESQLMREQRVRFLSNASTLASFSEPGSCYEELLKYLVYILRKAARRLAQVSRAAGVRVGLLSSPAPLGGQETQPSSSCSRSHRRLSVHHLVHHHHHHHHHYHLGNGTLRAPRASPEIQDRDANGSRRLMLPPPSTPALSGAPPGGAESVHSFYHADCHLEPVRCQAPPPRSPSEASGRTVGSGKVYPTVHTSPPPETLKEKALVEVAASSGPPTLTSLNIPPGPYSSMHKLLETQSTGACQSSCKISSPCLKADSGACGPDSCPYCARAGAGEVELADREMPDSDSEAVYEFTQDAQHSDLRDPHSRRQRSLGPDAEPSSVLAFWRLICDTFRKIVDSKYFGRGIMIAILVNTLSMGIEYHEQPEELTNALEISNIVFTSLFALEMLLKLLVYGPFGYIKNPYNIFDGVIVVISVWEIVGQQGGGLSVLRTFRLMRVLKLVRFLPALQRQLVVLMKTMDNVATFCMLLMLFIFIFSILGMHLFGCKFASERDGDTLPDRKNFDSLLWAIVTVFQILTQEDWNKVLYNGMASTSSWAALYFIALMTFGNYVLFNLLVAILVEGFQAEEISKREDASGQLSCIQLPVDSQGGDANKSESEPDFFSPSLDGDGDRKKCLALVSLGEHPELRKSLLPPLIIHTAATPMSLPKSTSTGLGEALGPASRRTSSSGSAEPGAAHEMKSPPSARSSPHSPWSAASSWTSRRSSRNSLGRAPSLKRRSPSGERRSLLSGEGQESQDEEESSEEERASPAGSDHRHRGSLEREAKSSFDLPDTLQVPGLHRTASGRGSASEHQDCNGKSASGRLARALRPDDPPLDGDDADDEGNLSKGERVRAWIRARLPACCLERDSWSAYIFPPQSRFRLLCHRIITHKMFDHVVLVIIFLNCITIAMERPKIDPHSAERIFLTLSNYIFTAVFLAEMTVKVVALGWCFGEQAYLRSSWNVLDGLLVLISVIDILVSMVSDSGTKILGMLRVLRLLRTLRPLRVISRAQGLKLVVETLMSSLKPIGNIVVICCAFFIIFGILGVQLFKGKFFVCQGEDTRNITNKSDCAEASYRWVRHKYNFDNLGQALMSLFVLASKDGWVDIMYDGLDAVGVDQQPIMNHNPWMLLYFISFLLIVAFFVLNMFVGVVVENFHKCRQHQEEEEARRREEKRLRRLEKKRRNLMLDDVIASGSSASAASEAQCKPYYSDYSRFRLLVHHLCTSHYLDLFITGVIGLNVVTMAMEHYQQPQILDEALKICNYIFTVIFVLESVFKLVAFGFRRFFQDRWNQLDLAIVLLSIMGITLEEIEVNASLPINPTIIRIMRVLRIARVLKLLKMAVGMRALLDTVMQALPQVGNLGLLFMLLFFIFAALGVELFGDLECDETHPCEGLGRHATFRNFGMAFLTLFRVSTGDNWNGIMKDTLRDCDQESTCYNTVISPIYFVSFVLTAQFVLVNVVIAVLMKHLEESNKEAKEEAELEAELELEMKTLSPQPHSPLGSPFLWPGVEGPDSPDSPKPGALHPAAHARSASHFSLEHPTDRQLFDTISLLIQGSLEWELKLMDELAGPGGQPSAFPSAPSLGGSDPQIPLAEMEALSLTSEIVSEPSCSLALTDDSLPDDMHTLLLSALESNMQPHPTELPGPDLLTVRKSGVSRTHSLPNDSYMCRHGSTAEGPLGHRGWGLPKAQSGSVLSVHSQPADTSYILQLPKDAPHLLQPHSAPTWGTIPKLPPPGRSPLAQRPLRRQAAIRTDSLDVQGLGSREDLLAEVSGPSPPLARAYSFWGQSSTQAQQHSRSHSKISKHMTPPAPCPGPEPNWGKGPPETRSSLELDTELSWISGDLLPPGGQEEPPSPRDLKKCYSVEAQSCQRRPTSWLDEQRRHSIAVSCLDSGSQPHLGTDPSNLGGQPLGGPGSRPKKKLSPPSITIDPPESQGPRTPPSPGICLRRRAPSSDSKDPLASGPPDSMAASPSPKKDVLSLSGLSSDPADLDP

For the compound `COC(=O)[C@H](Cc1c[nH]c2ccccc12)NC(=O)C(C)(c1c[nH]c2ccccc12)c1c[nH]c2ccccc12` [Compound 3, Methyl (2,2-di(1H-indol-3-yl)propanoyl)-L-tryptophanate], the IC50 in test [1] (FLIPR window current assay, transiently transfected HEK293T, N = 3, mean ± SEM, read-out: IC50 CaV3.1 (LVA CaVs)) stood at 58.6 ± 2.62 µM; in test [2] (QPatch, 200 ms steps to Vmax (−10 mV) from holding −90 mV, n = 5, mean ± SEM, read-out: IC50 CaV3.3 whole-cell current) it was 15.8 ± 2.28 µM. In addition, the Emax was 75.5% in test [1] (FLIPR, n = 3, read-out: Emax, inhibition for CaV3.1) and at least 95% in test [2] (QPatch whole-cell, full inhibition, read-out: Emax value, inhibition of CaV3.3 whole-cell current). The inhibition at 0.2 µM in test [2] (QPatch, 200 nM compound, read-out: Inhibition of the CaV3.3 peak current) is below 10%. In addition, the “Voltage-dependence of steady-state inactivation of CaV3.3, in words” value in test [2] (QPatch, in the presence of compound) is “not significantly shifted”.

The values above are taken from publication PMC6315694, “Synthesis of Pseudellone Analogs and Characterization as Novel T-type Calcium Channel Blockers” (Marine Drugs, 2018).
